From ChEMBL document CHEMBL3393036, “Tetra-substituted pyridinylimidazoles as dual inhibitors of p38α mitogen-activated protein kinase and c-Jun N-terminal kinase 3 for potential treatment of neurodegenerative diseases” (J Med Chem, 2015)

biological target: MAP kinase-activated protein kinase 2 (Homo sapiens) (UniProt P49137); experiment: Inhibition of MK2 (unknown origin) at 5.5 uM by Caliper Mobility Shift Assay
Sequence (P49137 whole entry, looked up): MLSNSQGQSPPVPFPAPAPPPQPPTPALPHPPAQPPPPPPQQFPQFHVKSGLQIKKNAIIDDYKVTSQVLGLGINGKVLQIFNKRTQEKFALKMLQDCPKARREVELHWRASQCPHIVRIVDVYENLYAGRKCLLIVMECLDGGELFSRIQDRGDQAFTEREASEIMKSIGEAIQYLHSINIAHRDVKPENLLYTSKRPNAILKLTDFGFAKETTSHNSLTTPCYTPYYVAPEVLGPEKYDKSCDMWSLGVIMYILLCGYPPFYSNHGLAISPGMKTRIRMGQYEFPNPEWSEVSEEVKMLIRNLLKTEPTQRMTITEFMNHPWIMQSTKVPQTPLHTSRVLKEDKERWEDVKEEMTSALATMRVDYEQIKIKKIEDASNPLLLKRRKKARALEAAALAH

**Q.** With CC(=O)Nc1cc(-c2c(-c3ccc(F)cc3)nc(S/C=C\C(=O)O)n2CC2CCCO2)ccn1 (racemic) as the molecule, how does the inhibition read?
**A.** < 50%

biological target: Serine/threonine-protein kinase WNK1 (Homo sapiens) (UniProt Q9H4A3); experiment: Inhibition of WNK1 (unknown origin) at 5.5 uM by Caliper Mobility Shift Assay

**Q.** How did the inhibition turn out when CC(=O)Nc1cc(-c2c(-c3ccc(F)cc3)nc(S/C=C\C(=O)O)n2CC2CCCO2)ccn1 (racemic) was run?
**A.** < 50%

biological target: T1, TGF-beta-activated kinase 1 and MAP3K7-binding protein 1 (Homo sapiens) (UniProt Q15750); experiment: Inhibition of MAP3K7-TAB1 (unknown origin) at 5.5 uM by Caliper Mobility Shift Assay
T1 sequence (whole entry): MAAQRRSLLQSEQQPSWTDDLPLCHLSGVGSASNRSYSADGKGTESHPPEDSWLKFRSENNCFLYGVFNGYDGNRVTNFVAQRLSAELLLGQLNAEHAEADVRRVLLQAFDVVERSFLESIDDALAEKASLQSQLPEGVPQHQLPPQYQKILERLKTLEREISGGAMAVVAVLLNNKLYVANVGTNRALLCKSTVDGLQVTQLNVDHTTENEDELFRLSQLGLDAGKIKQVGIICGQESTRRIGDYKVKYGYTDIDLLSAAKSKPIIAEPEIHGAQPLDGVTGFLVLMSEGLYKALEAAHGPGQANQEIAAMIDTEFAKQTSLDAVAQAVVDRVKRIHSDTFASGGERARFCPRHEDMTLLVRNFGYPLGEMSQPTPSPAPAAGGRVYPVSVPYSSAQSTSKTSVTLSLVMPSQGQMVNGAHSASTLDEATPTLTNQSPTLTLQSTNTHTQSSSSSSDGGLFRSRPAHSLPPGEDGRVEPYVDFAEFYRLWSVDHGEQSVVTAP

**Q.** With CC(=O)Nc1cc(-c2c(-c3ccc(F)cc3)nc(S/C=C\C(=O)O)n2CC2CCCO2)ccn1 (racemic) as the molecule, how does the inhibition read?
**A.** < 50%

biological target: Casein kinase I isoform gamma-3 (Homo sapiens) (UniProt Q9Y6M4); experiment: Inhibition of CSNK1G3 (CK1) (unknown origin) at 5.5 uM by Caliper Mobility Shift Assay

**Q.** How did the inhibition turn out when CC(=O)Nc1cc(-c2c(-c3ccc(F)cc3)nc(S/C=C\C(=O)O)n2CC2CCCO2)ccn1 (racemic) was run?
**A.** < 50%

biological target: Protein kinase C theta type (Homo sapiens) (UniProt Q04759); experiment: Inhibition of PRKCQ (unknown origin) at 5.5 uM by Caliper Mobility Shift Assay

**Q.** Which inhibition does the source give for CC(=O)Nc1cc(-c2c(-c3ccc(F)cc3)nc(S/C=C\C(=O)O)n2CC2CCCO2)ccn1 (racemic) here?
**A.** < 50%

biological target: Tyrosine-protein kinase SYK (Homo sapiens) (UniProt P43405); experiment: Inhibition of SYK (unknown origin) at 5.5 uM by Caliper Mobility Shift Assay

**Q.** Which inhibition does the source give for CC(=O)Nc1cc(-c2c(-c3ccc(F)cc3)nc(S/C=C\C(=O)O)n2CC2CCCO2)ccn1 (racemic) here?
**A.** < 50%

biological target: Tyrosine-protein kinase BTK (Homo sapiens) (UniProt Q06187); experiment: Inhibition of BTK (unknown origin) at 5.5 uM by Caliper Mobility Shift Assay

**Q.** CC(=O)Nc1cc(-c2c(-c3ccc(F)cc3)nc(S/C=C\C(=O)O)n2CC2CCCO2)ccn1 (racemic) was tested. Which inhibition did it give?
**A.** < 50%

biological target: T2, Ephrin type-B receptor 4 (Homo sapiens) (UniProt P54760); experiment: Inhibition of EPHB4 (unknown origin) at 5.5 uM by Caliper Mobility Shift Assay
T2 sequence (whole entry): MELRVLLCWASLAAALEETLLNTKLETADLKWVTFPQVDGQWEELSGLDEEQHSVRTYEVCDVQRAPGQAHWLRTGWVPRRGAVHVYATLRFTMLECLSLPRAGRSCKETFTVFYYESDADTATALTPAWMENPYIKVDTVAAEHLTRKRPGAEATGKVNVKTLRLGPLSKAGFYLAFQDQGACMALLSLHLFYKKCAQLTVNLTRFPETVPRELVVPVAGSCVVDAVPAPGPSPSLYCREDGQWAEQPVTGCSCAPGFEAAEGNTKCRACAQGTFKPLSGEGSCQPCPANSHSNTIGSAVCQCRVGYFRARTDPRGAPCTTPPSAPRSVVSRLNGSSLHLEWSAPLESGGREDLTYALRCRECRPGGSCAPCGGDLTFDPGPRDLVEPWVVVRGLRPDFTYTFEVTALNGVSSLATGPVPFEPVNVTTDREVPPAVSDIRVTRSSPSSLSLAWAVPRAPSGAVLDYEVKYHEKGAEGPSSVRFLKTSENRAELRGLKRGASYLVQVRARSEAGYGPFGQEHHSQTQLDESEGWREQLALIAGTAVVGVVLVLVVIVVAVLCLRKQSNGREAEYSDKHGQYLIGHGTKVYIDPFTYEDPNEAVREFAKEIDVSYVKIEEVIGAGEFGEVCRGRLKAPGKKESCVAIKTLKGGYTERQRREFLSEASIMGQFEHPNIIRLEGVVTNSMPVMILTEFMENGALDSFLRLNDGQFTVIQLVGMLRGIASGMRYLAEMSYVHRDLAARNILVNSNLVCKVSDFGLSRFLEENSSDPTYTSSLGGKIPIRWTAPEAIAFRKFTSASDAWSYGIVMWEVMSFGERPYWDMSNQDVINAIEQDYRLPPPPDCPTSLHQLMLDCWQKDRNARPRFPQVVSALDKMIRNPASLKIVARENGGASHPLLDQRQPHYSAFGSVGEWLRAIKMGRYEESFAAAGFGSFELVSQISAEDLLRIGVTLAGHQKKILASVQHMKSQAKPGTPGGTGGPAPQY

**Q.** For CC(=O)Nc1cc(-c2c(-c3ccc(F)cc3)nc(S/C=C\C(=O)O)n2CC2CCCO2)ccn1 (racemic), which inhibition is on record?
**A.** < 50%

biological target: Mitogen-activated protein kinase 9 (Homo sapiens) (UniProt P45984); experiment: Inhibition of JNK2 (unknown origin) at 5.5 uM by Caliper Mobility Shift Assay
Sequence (P45984 whole entry, looked up): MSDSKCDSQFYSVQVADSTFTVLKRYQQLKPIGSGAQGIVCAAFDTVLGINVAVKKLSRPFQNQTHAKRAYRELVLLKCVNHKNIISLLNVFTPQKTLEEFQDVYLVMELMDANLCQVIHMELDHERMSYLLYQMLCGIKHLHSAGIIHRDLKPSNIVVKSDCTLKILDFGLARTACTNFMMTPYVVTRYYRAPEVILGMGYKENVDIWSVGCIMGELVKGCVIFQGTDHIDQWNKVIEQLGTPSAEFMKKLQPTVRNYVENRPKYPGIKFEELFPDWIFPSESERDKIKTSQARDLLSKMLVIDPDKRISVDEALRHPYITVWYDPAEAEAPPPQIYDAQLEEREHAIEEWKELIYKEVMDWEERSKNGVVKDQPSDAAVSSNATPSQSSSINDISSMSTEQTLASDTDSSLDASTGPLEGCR

**Q.** With CC(=O)Nc1cc(-c2c(-c3ccc(F)cc3)nc(S/C=C\C(=O)O)n2CC2CCCO2)ccn1 (racemic) as the molecule, how does the inhibition read?
**A.** < 50%

biological target: Mitogen-activated protein kinase kinase kinase 8 (Homo sapiens) (UniProt P41279); experiment: Inhibition of MAP3K8 (unknown origin) at 5.5 uM by Caliper Mobility Shift Assay

**Q.** With CC(=O)Nc1cc(-c2c(-c3ccc(F)cc3)nc(S/C=C\C(=O)O)n2CC2CCCO2)ccn1 (racemic) as the molecule, how does the inhibition read?
**A.** < 50%

organism: Homo sapiens; experiment: Selectivity ratio of IC50 for JNK3 (unknown origin) to IC50 for p38alpha (unknown origin)

**Q.** How did the Ratio IC50 turn out when CC(=O)Nc1cc(-c2c(-c3ccc(F)cc3)nc(S/C=C\C(=O)O)n2CC2CCCO2)ccn1 (racemic) was run?
**A.** 0.2

biological target: Mitogen-activated protein kinase 14 (Homo sapiens, UniProt Q16539); experiment: Inhibition of p38alpha (unknown origin) assessed as phosphorylation of ATF-2 by ELISA

**Q.** CC(=O)Nc1cc(-c2c(-c3ccc(F)cc3)nc(S/C=C\C(=O)O)n2CC2CCCO2)ccn1 (racemic) was tested. Which IC50 did it give?
**A.** 0.223 µM

biological target: Tyrosine-protein kinase Lyn (Homo sapiens) (UniProt P07948); experiment: Inhibition of LYN (unknown origin) at 5.5 uM by Caliper Mobility Shift Assay
Sequence (P07948 2-512 limits assumed): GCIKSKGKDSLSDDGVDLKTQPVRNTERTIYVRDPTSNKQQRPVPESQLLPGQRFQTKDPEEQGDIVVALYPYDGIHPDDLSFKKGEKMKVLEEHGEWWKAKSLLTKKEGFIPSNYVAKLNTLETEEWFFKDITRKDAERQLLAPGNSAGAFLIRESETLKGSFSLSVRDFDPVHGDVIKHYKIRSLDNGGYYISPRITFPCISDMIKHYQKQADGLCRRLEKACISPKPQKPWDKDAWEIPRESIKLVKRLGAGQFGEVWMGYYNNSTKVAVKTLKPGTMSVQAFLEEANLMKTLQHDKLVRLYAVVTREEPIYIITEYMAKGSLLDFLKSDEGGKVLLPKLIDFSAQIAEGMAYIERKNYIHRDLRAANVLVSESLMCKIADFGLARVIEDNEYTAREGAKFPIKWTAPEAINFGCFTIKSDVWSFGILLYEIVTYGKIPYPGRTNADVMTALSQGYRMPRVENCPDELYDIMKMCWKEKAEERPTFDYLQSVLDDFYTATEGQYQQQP

**Q.** How did the inhibition turn out when CC(=O)Nc1cc(-c2c(-c3ccc(F)cc3)nc(S/C=C\C(=O)O)n2CC2CCCO2)ccn1 (racemic) was run?
**A.** < 50%

biological target: Proto-oncogene tyrosine-protein kinase Src (Homo sapiens) (UniProt P12931); experiment: Inhibition of cSRC (unknown origin) at 5.5 uM by Caliper Mobility Shift Assay
Sequence (P12931 2-536 limits assumed): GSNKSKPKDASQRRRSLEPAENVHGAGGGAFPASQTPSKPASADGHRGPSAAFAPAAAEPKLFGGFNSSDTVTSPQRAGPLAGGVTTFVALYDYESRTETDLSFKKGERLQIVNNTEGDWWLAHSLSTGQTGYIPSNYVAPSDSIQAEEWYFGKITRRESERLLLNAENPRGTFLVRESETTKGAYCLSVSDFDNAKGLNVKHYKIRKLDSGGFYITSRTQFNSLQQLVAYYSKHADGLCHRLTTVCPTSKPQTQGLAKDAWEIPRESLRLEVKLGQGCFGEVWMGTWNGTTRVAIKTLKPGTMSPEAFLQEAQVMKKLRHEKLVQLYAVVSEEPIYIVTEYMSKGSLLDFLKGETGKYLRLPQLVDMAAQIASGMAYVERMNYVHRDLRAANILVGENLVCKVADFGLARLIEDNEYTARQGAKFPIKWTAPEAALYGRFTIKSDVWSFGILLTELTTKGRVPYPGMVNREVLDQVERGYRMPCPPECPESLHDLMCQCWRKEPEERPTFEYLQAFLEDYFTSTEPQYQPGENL

**Q.** Which inhibition does the source give for CC(=O)Nc1cc(-c2c(-c3ccc(F)cc3)nc(S/C=C\C(=O)O)n2CC2CCCO2)ccn1 (racemic) here?
**A.** < 50%

biological target: Serine/threonine-protein kinase PAK 2 (Homo sapiens) (UniProt Q13177); experiment: Inhibition of PAK2 (unknown origin) at 5.5 uM by Caliper Mobility Shift Assay
Sequence (Q13177 whole entry): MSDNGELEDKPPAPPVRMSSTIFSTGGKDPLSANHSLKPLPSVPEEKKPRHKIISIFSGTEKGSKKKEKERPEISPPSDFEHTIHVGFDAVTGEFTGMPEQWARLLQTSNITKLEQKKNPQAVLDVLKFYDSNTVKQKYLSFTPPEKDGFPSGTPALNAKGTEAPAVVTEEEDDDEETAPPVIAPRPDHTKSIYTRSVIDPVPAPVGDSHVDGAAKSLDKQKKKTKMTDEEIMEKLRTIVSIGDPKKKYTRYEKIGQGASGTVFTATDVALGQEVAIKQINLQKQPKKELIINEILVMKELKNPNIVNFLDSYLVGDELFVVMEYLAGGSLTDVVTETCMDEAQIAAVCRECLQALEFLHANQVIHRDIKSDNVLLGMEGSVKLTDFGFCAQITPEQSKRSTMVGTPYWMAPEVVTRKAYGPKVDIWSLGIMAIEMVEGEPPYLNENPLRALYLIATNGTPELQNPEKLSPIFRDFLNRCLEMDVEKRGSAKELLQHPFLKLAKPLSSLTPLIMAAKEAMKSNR

**Q.** For CC(=O)Nc1cc(-c2c(-c3ccc(F)cc3)nc(S/C=C\C(=O)O)n2CC2CCCO2)ccn1 (racemic), which inhibition is on record?
**A.** < 50%

biological target: Rho-associated protein kinase 2 (Homo sapiens) (UniProt O75116); experiment: Inhibition of ROCK2 (unknown origin) at 5.5 uM by Caliper Mobility Shift Assay
Sequence (O75116 whole entry, looked up): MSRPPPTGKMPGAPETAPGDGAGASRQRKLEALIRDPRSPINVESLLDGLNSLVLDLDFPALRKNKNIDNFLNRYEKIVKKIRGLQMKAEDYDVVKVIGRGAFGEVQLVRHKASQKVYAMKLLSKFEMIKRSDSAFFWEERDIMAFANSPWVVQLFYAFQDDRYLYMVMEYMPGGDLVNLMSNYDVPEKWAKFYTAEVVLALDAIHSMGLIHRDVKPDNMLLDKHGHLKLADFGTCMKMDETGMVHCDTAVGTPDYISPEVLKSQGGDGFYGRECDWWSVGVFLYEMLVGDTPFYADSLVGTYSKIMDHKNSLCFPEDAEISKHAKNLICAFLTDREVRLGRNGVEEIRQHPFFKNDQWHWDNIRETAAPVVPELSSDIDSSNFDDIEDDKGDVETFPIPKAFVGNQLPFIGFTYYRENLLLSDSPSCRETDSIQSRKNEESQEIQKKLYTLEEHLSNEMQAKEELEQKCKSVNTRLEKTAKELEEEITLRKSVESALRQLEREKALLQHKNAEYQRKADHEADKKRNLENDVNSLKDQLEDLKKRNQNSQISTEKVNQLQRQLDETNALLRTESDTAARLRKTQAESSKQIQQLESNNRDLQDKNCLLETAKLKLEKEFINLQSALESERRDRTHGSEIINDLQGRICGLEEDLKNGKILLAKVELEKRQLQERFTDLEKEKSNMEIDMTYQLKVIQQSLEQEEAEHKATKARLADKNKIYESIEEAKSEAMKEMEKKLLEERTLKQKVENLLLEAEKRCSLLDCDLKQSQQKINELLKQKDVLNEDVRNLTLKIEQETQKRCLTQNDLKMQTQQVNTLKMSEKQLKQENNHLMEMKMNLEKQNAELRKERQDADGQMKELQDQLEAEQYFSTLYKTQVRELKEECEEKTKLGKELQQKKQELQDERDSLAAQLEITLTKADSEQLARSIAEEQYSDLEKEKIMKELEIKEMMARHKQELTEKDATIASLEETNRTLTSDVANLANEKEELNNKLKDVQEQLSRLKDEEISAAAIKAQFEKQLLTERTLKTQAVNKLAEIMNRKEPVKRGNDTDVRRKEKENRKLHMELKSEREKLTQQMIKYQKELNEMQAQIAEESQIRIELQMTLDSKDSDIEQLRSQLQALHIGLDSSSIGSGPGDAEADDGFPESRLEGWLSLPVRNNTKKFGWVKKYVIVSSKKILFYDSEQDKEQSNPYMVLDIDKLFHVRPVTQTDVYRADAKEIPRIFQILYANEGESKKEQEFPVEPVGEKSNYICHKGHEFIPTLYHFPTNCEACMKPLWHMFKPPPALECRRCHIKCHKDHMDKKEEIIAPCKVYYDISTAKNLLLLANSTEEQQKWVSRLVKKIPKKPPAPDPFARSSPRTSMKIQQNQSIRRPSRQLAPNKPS

**Q.** For CC(=O)Nc1cc(-c2c(-c3ccc(F)cc3)nc(S/C=C\C(=O)O)n2CC2CCCO2)ccn1 (racemic), which inhibition is on record?
**A.** < 50%

biological target: Vascular endothelial growth factor receptor 2 (Homo sapiens) (UniProt P35968); experiment: Inhibition of KDR (unknown origin) at 5.5 uM by Caliper Mobility Shift Assay

**Q.** Which inhibition does the source give for CC(=O)Nc1cc(-c2c(-c3ccc(F)cc3)nc(S/C=C\C(=O)O)n2CC2CCCO2)ccn1 (racemic) here?
**A.** < 50%

biological target: Fibroblast growth factor receptor 2 (Homo sapiens) (UniProt P21802); experiment: Inhibition of FGFR2 (unknown origin) at 5.5 uM by Caliper Mobility Shift Assay
Sequence (P21802 22-821 limits assumed): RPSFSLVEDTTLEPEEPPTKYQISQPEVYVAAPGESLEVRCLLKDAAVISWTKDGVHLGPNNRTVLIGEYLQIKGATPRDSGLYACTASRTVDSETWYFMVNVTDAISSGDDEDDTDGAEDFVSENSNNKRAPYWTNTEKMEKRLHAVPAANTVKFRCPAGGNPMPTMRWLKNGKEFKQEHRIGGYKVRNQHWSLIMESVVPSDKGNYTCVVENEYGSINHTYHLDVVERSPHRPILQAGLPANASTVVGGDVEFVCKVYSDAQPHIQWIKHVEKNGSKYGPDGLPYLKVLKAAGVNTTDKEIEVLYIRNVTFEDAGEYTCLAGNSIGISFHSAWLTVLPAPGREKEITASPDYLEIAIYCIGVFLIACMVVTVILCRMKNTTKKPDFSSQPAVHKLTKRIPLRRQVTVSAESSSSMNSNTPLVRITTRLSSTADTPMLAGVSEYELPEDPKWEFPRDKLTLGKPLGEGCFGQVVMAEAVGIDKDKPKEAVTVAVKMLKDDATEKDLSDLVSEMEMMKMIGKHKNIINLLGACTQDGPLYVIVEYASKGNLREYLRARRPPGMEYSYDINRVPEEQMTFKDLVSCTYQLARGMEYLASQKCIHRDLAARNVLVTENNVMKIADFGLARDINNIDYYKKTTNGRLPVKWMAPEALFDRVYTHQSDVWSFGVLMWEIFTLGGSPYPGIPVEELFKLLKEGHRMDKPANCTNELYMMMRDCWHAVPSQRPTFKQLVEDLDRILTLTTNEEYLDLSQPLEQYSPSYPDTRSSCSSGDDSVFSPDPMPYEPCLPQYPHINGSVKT

**Q.** How did the inhibition turn out when CC(=O)Nc1cc(-c2c(-c3ccc(F)cc3)nc(S/C=C\C(=O)O)n2CC2CCCO2)ccn1 (racemic) was run?
**A.** < 50%

biological target: Mitogen-activated protein kinase 8 (Homo sapiens) (UniProt P45983); experiment: Inhibition of JNK1 (unknown origin) at 5.5 uM by Caliper Mobility Shift Assay
Sequence (P45983 whole entry): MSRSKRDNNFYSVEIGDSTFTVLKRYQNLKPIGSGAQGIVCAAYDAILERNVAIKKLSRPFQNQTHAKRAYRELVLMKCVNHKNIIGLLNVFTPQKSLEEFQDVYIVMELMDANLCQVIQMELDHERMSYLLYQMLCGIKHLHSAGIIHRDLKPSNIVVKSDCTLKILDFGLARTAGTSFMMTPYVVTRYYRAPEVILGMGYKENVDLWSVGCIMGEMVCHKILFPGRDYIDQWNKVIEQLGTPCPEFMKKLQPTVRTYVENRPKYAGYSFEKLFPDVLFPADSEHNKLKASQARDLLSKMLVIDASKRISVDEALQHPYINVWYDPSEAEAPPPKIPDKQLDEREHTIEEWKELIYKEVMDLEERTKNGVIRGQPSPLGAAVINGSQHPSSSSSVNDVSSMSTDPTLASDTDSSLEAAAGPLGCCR

**Q.** CC(=O)Nc1cc(-c2c(-c3ccc(F)cc3)nc(S/C=C\C(=O)O)n2CC2CCCO2)ccn1 (racemic) was tested. Which inhibition did it give?
**A.** < 50%

biological target: Tyrosine-protein kinase JAK2 (Homo sapiens) (UniProt O60674); experiment: Inhibition of JAK2 (unknown origin) at 5.5 uM by Caliper Mobility Shift Assay

**Q.** How did the inhibition turn out when CC(=O)Nc1cc(-c2c(-c3ccc(F)cc3)nc(S/C=C\C(=O)O)n2CC2CCCO2)ccn1 (racemic) was run?
**A.** < 50%
